Data reported in PubChem BioAssay (NCI).
Several values for one entry are separate records, joined by “and”; a condition that tells them apart may be missing. Equal entries are not always repeated.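 Exposure lasted 48 hours, with cells grown in 96-well plates and compounds tested at five concentrations. GI50 = concentration required for 50% inhibition of growth. TGI: total growth inhibition.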

Tests used:
Experiment in all cases: NCI-60 cell line screen, 48 h
[1] = system: DU-145 prostate
[2] = system: UO-31 renal
[3] = system: HS 578T breast
[4] = system: SK-MEL-28 melanoma
[5] = system: IGROV1 ovarian
[6] = system: NCI-H23 lung
[7] = system: RXF 393 renal
[8] = system: HCT-15 colon
[9] = system: OVCAR-3 ovarian
[10] = system: HL-60(TB) leukemia
[11] = system: SNB-75 CNS

SMILES	TGI [1]	TGI [2]	TGI [3]	TGI [4]	TGI [5]	TGI [6]	TGI [7]	TGI [8]	TGI [9]	TGI [10]	TGI [11]	GI50 [2]	GI50 [1]	GI50 [4]	GI50 [5]	GI50 [6]	GI50 [7]	GI50 [8]	GI50 [9]	GI50 [11]
CC1(C)CC[C@]2(C(=O)O)[C@H](O)C[C@]3(C)C(=CC[C@@H]4[C@@]5(C)CC[C@H](OC6OC(C(=O)O)C(O)C(O)C6O)C(C)(C)[C@@H]5CC[C@]43C)[C@@H]2C1 (stereo not given in full)	> 100 µM	32 µM	80.9 µM	37.1 µM	> 100 µM	> 100 µM	81.6 µM	> 100 µM	> 100 µM	44.9 µM	> 100 µM	–	–	–	–	–	–	–	–	–
Nc1ccc(-c2nc3ccccc3s2)cc1Br	> 100 µM	> 100 µM	> 100 µM	> 100 µM	> 100 µM	> 100 µM	> 100 µM	> 100 µM	> 100 µM	> 100 µM	> 86.4 µM	–	–	–	–	–	–	–	–	–
C#CCOC(=O)C(N)CCSC (stereo not given)	> 100 µM	> 100 µM	> 100 µM	> 100 µM	> 100 µM	> 100 µM	> 100 µM	–	> 100 µM	> 100 µM	> 100 µM	–	–	–	–	–	–	–	–	–
CC1CN=C(c2ccc(COc3ccc(C4=NCC(C)N4)cc3)cc2)N1 (stereo not given)	> 100 µM	> 100 µM	> 100 µM	> 100 µM	> 100 µM	> 100 µM	> 100 µM	> 100 µM	> 100 µM	> 100 µM	64.4 µM	–	–	–	–	–	–	–	–	–
O=C(O)CC(O)(C(=O)O)C(O)C(=O)O (stereo not given)	> 1000 µM	–	867 µM	> 1000 µM	> 1000 µM	> 1000 µM	> 1000 µM	> 1000 µM	> 1000 µM	> 1000 µM	> 1000 µM	–	–	–	–	–	–	–	–	–
CC1(C)c2ccccc2C(O)C12CCC(=O)CC2 (stereo not given)	> 100 µM	> 100 µM	> 100 µM	> 100 µM	> 100 µM	> 100 µM	30.8 µM	> 100 µM	> 100 µM	> 100 µM	–	–	–	–	–	–	–	–	–	–
C[N+](C)(N)c1nc(N)c(C#N)c(C#N)c1C#N	> 10 µM	> 10 µM	> 10 µM	> 10 µM	> 10 µM	> 10 µM	> 10 µM	> 10 µM	> 10 µM	> 10 µM	> 10 µM	–	–	–	–	–	–	–	–	–
C=C1c2nc3ccccc3n2C=C(c2ccc(OC)cc2)N1c1ccc(OCCN2CCOCC2)cc1	> 100 µM	> 100 µM	> 40 µM	> 100 µM	> 100 µM	> 100 µM	> 100 µM	> 100 µM	> 100 µM	> 34.8 µM	> 100 µM	–	–	–	–	–	–	–	–	–
O=C(Oc1cccc(Cl)c1)c1cc2cc(CCl)ccc2oc1=O	62.9 µM	> 100 µM	> 100 µM	> 100 µM	> 100 µM	> 100 µM	62.7 µM	> 100 µM	> 100 µM	82 µM	> 100 µM	–	–	–	–	–	–	–	–	–
CC1=CC(=O)/C(=C/n2c(=S)[nH]c3ccccc32)C(=O)O1	> 100 µM	> 100 µM	> 100 µM	–	> 100 µM	> 100 µM	> 100 µM	> 100 µM	> 100 µM	> 100 µM	> 100 µM	–	–	–	–	–	–	–	–	–
COCCNC1CCC2(SCCS2)c2[nH]c3ccccc3c21 (stereo not given)	> 100 µM	–	> 100 µM	> 100 µM	> 100 µM	> 100 µM	40.4 µM	> 100 µM	82.1 µM	45.8 µM	> 100 µM	–	–	–	–	–	–	–	–	–
C#CCCCC(=O)N(C(=O)CS(=O)CC)c1ccccc1 (stereo not given)	> 100 µM	> 100 µM	> 100 µM	> 100 µM	> 100 µM	> 100 µM	> 100 µM	> 100 µM	> 100 µM	> 100 µM	> 100 µM	–	–	–	–	–	–	–	–	–
OCC(O)C(O)C(O)C(O)/C=N/Nc1nc(O)c(/C=C2\C=Nc3ccccc32)[nH]1 (stereo not given)	> 100 µM	–	> 100 µM	> 100 µM	> 100 µM	> 100 µM	> 100 µM	> 100 µM	> 100 µM	> 100 µM	> 100 µM	–	–	–	–	–	–	–	–	–
OC(c1ccccc1)(c1cccnc1)C(O)(c1ccccc1)c1cccnc1 (stereo not given)	> 100 µM	> 100 µM	> 100 µM	–	> 100 µM	> 100 µM	> 100 µM	> 100 µM	–	> 100 µM	> 100 µM	–	–	–	–	–	–	–	–	–
CN(C)CCn1nc(N)c2nc3cc(C(F)(F)F)ccc3nc21	> 100 µM	> 100 µM	> 100 µM	> 100 µM	> 100 µM	> 100 µM	> 100 µM	> 100 µM	–	> 100 µM	72 µM	–	–	–	–	–	–	–	–	–
C=CCC(CNC(=O)OCc1ccccc1)OC(=O)OCc1ccccc1 (stereo not given)	> 100 µM	> 100 µM	> 100 µM	> 100 µM	> 100 µM	> 100 µM	> 100 µM	> 100 µM	> 100 µM	> 100 µM	> 100 µM	–	–	–	–	–	–	–	–	–
Cc1ccc2c(=O)c(-c3n[nH]c(=S)s3)c[nH]c2n1	> 100 µM	> 100 µM	> 100 µM	> 100 µM	> 100 µM	> 100 µM	> 100 µM	> 100 µM	> 100 µM	> 100 µM	–	–	–	–	–	–	–	–	–	–
C=CCN1CCC2(CC1)NC(=O)c1ccccc1O2	> 100 µM	> 100 µM	> 100 µM	> 100 µM	> 100 µM	> 100 µM	> 100 µM	> 100 µM	> 100 µM	> 100 µM	> 100 µM	–	–	–	–	–	–	–	–	–

SMILES	TGI [1]	TGI [2]	TGI [3]	TGI [4]	TGI [5]	TGI [6]	TGI [7]	TGI [8]	TGI [9]	TGI [10]	TGI [11]	GI50 [2]	GI50 [1]	GI50 [4]	GI50 [5]	GI50 [6]	GI50 [7]	GI50 [8]	GI50 [9]	GI50 [11]
CCOC(=O)CC[C@H](N)C(=O)N[C@H](Cc1ccc(N(CCCl)CCCl)cc1)C(=O)OCC	3.77 µM	0.281 µM	6.64 µM	> 60.7 µM	9.37 µM	4.29 µM	3.66 µM	10.6 µM	10.1 µM	38.9 µM	5.89 µM	0.135 µM	–	–	–	–	–	–	–	–
C=CC1(c2ccc(OC)cc2)OCCCO1	> 100 µM	> 100 µM	> 100 µM	> 100 µM	> 100 µM	> 100 µM	> 100 µM	> 100 µM	> 100 µM	> 100 µM	> 100 µM	–	–	–	–	–	–	–	–	–
CCCCCCCCCCCCCCCCP(=O)([O-])OCC[N+](C)(C)C	28.3 µM	28.2 µM	33.4 µM	33.8 µM	7.2 µM	40 µM	15 µM	16.7 µM	31.6 µM	17.9 µM	29 µM	–	–	–	–	–	–	–	–	–
CC1CC[C@@]2(OC1)OC1C[C@H]3[C@@H]4CCC5CC(O)CC[C@]5(C)[C@H]4C/C(=N\N(C)C)[C@]3(C)C1[C@@H]2C (stereo not given in full)	60.1 µM	90.4 µM	97.7 µM	> 100 µM	> 100 µM	42.6 µM	37.7 µM	60.3 µM	38.6 µM	70.5 µM	–	–	–	–	–	–	–	–	–	–
CCOP(=O)(OCC)C(C)(C)OC(=O)NC#N	> 100 µM	> 100 µM	> 100 µM	> 100 µM	> 100 µM	> 100 µM	> 100 µM	> 100 µM	> 100 µM	> 100 µM	> 100 µM	–	–	–	–	–	–	–	–	–
C/C=C1\CC(C(=O)OCC)CCCCCCCCCCC1=O (stereo not given)	> 100 µM	> 100 µM	> 100 µM	> 100 µM	> 100 µM	> 100 µM	> 100 µM	> 100 µM	–	> 100 µM	> 100 µM	–	–	–	–	–	–	–	–	–
CC(=O)N(CN1C(=O)CCC1C(=O)O)c1ccccc1Cl (stereo not given)	> 100 µM	> 100 µM	> 100 µM	> 100 µM	> 100 µM	> 100 µM	> 100 µM	> 100 µM	> 100 µM	> 100 µM	> 100 µM	–	–	–	–	–	–	–	–	–
COc1ccc(C[C@@H]2OC3(C=CC(=O)C=C3)O[C@H]2Cc2ccc(OC)cc2)cc1	5.32 µM	0.379 µM	23.3 µM	3.13 µM	1.16 µM	3.53 µM	0.79 µM	0.77 µM	2.31 µM	5.04 µM	3.04 µM	–	–	–	–	–	–	–	–	–
COc1cc2c(cc1OCCCCCOc1cc3c(cc1OC)C(=O)N1CCC[C@H]1CN3)N=C[C@@H]1CCCN1C2=O	> 100 µM	30.9 µM	50.4 µM	28.2 µM	21.3 µM	20.5 µM	72 µM	43.8 µM	44.7 µM	30 µM	95.2 µM	–	–	–	–	–	–	–	–	–
C=CC(Br)(CBr)CCC(Br)C(C)C (stereo not given)	22.8 µM	26.3 µM	7.73 µM	16.8 µM	11.1 µM	20.8 µM	20.3 µM	17.9 µM	8.9 µM	2.04 µM	6.13 µM	–	–	–	–	–	–	–	–	–
CC(=O)C1(O)Cc2c(O)c3c(c(O)c2C(OC2CC(N)C(O)C(C)O2)C1)C(=O)c1ccccc1C3=O (stereo not given)	0.438 µM and 0.0587 µM	0.204 µM and < 0.0304 µM	0.391 µM	0.49 µM and 0.367 µM	0.525 µM and 0.503 µM	0.12 µM and 0.046 µM	0.553 µM and 0.0785 µM	0.52 µM and 0.348 µM	0.987 µM and 0.475 µM	0.0806 µM and < 0.0108 µM	0.594 µM and 0.103 µM	< 0.0127 µM	< 0.0104 µM	0.151 µM and 0.049 µM	0.0383 µM	< 0.012 µM	0.15 µM and 0.0166 µM	0.0156 µM	0.0375 µM	0.0293 µM
CCOP(=O)(OCC)C(Nc1ccc(F)cc1)c1ccccc1 (stereo not given)	> 100 µM	> 100 µM	> 100 µM	> 100 µM	> 100 µM	> 100 µM	> 100 µM	> 100 µM	> 100 µM	> 100 µM	> 100 µM	–	–	–	–	–	–	–	–	–
COP(C)(=O)C(Cc1c[nH]c2ccccc12)NC(=O)OCc1ccccc1 (stereo not given)	> 100 µM	> 100 µM	> 100 µM	> 100 µM	> 100 µM	> 100 µM	> 100 µM	> 100 µM	> 100 µM	> 100 µM	–	–	–	–	–	–	–	–	–	–
CC(=O)OCC1OC(N2C(S)=C(C#N)C(c3ccco3)C(C(C)=O)=C2c2ccccc2)C(OC(C)=O)C(OC(C)=O)C1OC(C)=O (stereo not given)	> 100 µM	91.4 µM	48.4 µM	> 100 µM	> 100 µM	> 100 µM	> 100 µM	> 100 µM	> 100 µM	> 100 µM	> 100 µM	–	–	–	–	–	–	–	–	–
CCCC1(N)CC(OC)OC(C)C1O (stereo not given)	> 100 µM	> 100 µM	> 100 µM	> 100 µM	> 100 µM	> 100 µM	> 100 µM	> 100 µM	> 100 µM	> 100 µM	> 100 µM	–	–	–	–	–	–	–	–	–
OC(CN1CCCCC1)c1ccc(/C=C/c2ccc(Cl)cc2)cc1 (stereo not given)	> 100 µM	> 100 µM	> 100 µM	42.6 µM	66.5 µM	> 100 µM	> 100 µM	76.3 µM	> 100 µM	> 100 µM	–	–	–	–	–	–	–	–	–	–
Cc1sc2nc3n(c(=O)c2c1C)N=C(c1ccc([N+](=O)[O-])cc1)CS3	> 100 µM	> 100 µM	> 100 µM	> 100 µM	–	> 100 µM	> 100 µM	> 100 µM	> 100 µM	> 100 µM	> 100 µM	–	–	–	–	–	–	–	–	–
